Experimental data as given in patent US11840686B2, “Modulation of prekallikrein (PKK) expression” (Ionis Pharmaceuticals, Inc., priority 2013, dated 2023).
Strand notation (5' to 3'): a small letter for the sugar, then the base; units joined by * are phosphorothioate-linked, units joined directly phosphodiester-linked; [ ] holds rarer units or linkages, { } end groups; capitals alone tell only the bases. e = 2'-O-(2-methoxyethyl) (MOE); [5mC] = 5-methylcytosine; d = 2'-deoxy (DNA)

The substances below were run on human PKK mRNA (assay: Antisense inhibition of human PKK mRNA in HepaRG cells, 5,000 nM (Example 2)). Settings: HepaRG cells, 5,000 nM antisense oligonucleotide; 5-10-5 gapmers; Table 16.
Assay type: cell-based
Procedure: Additional antisense oligonucleotides were designed targeting a PKK nucleic acid and were tested for their effects on PKK mRNA in vitro.
The chimeric antisense oligonucleotides in the tables below were designed as 5-10-5 MOE gapmers, 4-9-4 MOE gapmers, 4-10-4 MOE gapmers, 4-10-3 MOE gapmers, 3-10-4 MOE gapmers, or 3-10-3 MOE gapmers. The 5-10-5 MOE gapmers are 20 nucleosides in length, wherein the central gap segment comprises of ten 2′-deoxynucleosides and is flanked by wing segments on the 5′ direction and the 3′ direction comprising five nucleosides each. The 4-9-4 MOE gapmers are 17 nucleosides in length, wherein the central gap segment comprises of nine 2′-deoxynucleosides and is flanked by wing segments on the 5′ direction and the 3′ direction comprising four nucleosides each. The 4-10-4 MOE gapmers are 18 nucleosides in length, wherein the central gap segment comprises of ten 2′-deoxynucleosides and is flanked by wing segments on the 5′ direction and the 3′ direction comprising four nucleosides each. The 4-10-3 MOE gapmers are 17 nucleosides in length, wherein the central gap segment comprises of ten 2′-deoxynucleosides and is flanked by wing segments on the 5′ direction and the 3′ direction comprising four and three nucleosides respectively. The 3-10-4 MOE gapmers are 17 nucleosides in length, wherein the central gap segment comprises often 2′-deoxynucleosides and is flanked by wing segments on the 5′ direction and the 3′ direction comprising three and four nucleosides respectively. The 3-10-3 MOE gapmers are 16 nucleosides in length, wherein the central gap segment comprises of ten 2′-deoxynucleosides and is flanked by wing segments on the 5′ direction and the 3′ direction comprising three nucleosides each. Each nucleoside in the 5′ wing segment and each nucleoside in the 3′ wing segment has a 2′-O-methoxyethyl modification. The internucleoside linkages throughout each gapmer are phosphorothioate linkages. All cytosine residues throughout each gapmer are 5-methylcytosines. “Start site” indicates the 5′-most nucleoside to which the gapmer is targeted in the human gene sequence. “Stop site” indicates the 3′-most nucleoside to which the gapmer is targeted in the human gene sequence.
Cultured HepaRG™ cells at a density of 20,000 cells per well were transfected using electroporation with 5,000 nM antisense oligonucleotide. After a treatment period of approximately 24 hours, RNA was isolated from the cells and PKK mRNA levels were measured by quantitative real-time PCR. Human primer probe set RTS3454 was used to measure mRNA levels. PKK mRNA levels were adjusted according to total RNA content, as measured by RIBOGREEN®. The antisense oligonucleotides were tested in a series of experiments that had similar culture conditions. Results are presented as percent inhibition of PKK, relative to untreated control cells.
In the case of “547699 (antisense eT*eA*e[5mC]*e[5mC]*eT*dA*dT*dA*dA*d[5mC]*dT*dA*dT*dA*dA*e[5mC]*eA*eA*eT*eA) [compound 547699]”, the “% inhibition” value is reported as 10%.
With “547708 (antisense eG*e[5mC]*e[5mC]*eA*eG*dG*dA*dG*dA*d[5mC]*dA*dG*d[5mC]*d[5mC]*d[5mC]*eT*eA*e[5mC]*eT*e[5mC]) [compound 547708]” the “% inhibition” value was 67%.

Same assay, conditions: HepaRG cells, 5,000 nM antisense oligonucleotide; 5-10-5 gapmers; Table 17
In the case of “547758 (antisense e[5mC]*e[5mC]*eA*eA*eG*dT*dA*dG*dT*dG*d[5mC]*dA*dA*dG*dG*e[5mC]*eA*eT*eG*eT) [compound 547758]”, the “% inhibition” value is reported as 24%.
With “547738 (eT*eT*eG*eG*eT*dG*dG*dT*dG*dG*dG*dA*dT*dT*dG*eG*eT*eG*e[5mC]*eT; antisense) [compound 547738]” the “% inhibition” value was 41%.
With “547750 (eT*eG*eG*eT*eT*dG*dG*dT*dG*dG*d[5mC]*dG*dG*dG*dA*eT*e[5mC]*eG*eG*eT; antisense) [compound 547750]” the “% inhibition” value was 41%.

Same assay, conditions: HepaRG cells, electroporation with 5,000 nM antisense oligonucleotide, approximately 24 hours, PKK mRNA by RT-PCR (RTS3454), relative to untreated control cells; Table 5 experiment
In the case of “546137 (eA*eT*eT*eG*e[5mC]*dT*dT*d[5mC]*dT*dT*dG*dG*dA*dG*dG*eT*eG*eA*eG*eT; antisense) [compound 546137]”, the “% inhibition” value is reported as 76%.
“547272 (e[5mC]*eA*e[5mC]*eT*eT*dA*dA*dA*dA*dA*dT*dG*dA*dA*d[5mC]*eG*eG*eT*e[5mC]*eT; antisense) [compound 547272]” was tested, and the “% inhibition” value was 82%.
In the case of “547313 (antisense eG*eT*eT*e[5mC]*eG*dA*dT*dG*dT*dA*d[5mC]*dT*dT*dT*dT*eG*eG*e[5mC]*eA*eG) [compound 547313]”, the “% inhibition” value is reported as 73%.

Same assay, conditions: HepaRG cells, electroporation with 5,000 nM antisense oligonucleotide, approximately 24 hours, PKK mRNA by RT-PCR (RTS3454), relative to untreated control cells; Table 6 experiment
“546204 (antisense eA*eA*eT*eA*eG*dG*d[5mC]*dA*dA*dT*dT*dG*dT*dT*d[5mC]*e[5mC]*eG*eG*eT*eA) [compound 546204]” was tested, and the “% inhibition” value was 91%.
With “547343 (antisense e[5mC]*eA*e[5mC]*eA*eT*dT*dA*dA*dA*dA*dT*dT*dG*dA*d[5mC]*eT*e[5mC]*e[5mC]*eT*e[5mC]) [compound 547343]” the “% inhibition” value was 78%.
In the case of “546205 (antisense eG*eT*eA*e[5mC]*eT*dT*dT*dA*dA*dT*dA*dG*dG*d[5mC]*dA*eA*eT*eT*eG*eT) [compound 546205]”, the “% inhibition” value is reported as 83%.

Same assay, conditions: HepaRG cells, electroporation, 5,000 nM antisense oligonucleotide, approx. 24 hours, primer probe set RTS3454, relative to untreated control cells; Table 11
“547497 (antisense eA*e[5mC]*eT*eG*e[5mC]*dT*dT*d[5mC]*dT*d[5mC]*dA*dT*dG*d[5mC]*dT*eG*eG*eT*eG*eA) [compound 547497]” was tested, and the “% inhibition” value was 68%.
In the case of “546388 (e[5mC]*eT*eG*eA*eA*dA*dG*d[5mC]*dG*dG*dG*d[5mC]*dT*dT*d[5mC]*eA*eG*e[5mC]*e[5mC]*eA; antisense) [compound 546388]”, the “% inhibition” value is reported as 71%.
For “547500 (antisense e[5mC]*e[5mC]*eT*eA*eG*dA*d[5mC]*dT*d[5mC]*dT*dG*dG*dA*d[5mC]*dT*eG*e[5mC]*eT*eT*e[5mC]) [compound 547500]”, the “% inhibition” value was 65%.
“547496 (antisense eA*eT*eG*e[5mC]*eT*dG*dG*dT*dG*dA*d[5mC]*dT*dG*d[5mC]*dA*eT*e[5mC]*eT*eG*eA) [compound 547496]” was tested, and the “% inhibition” value was 80%.
“547528 (antisense e[5mC]*eA*e[5mC]*eA*eG*dT*d[5mC]*dA*dT*dG*dG*dA*dG*dA*dT*e[5mC]*eT*e[5mC]*eA*eG) [compound 547528]” was tested, and the “% inhibition” value was 78%.
In the case of “546375 (antisense eG*eA*e[5mC]*e[5mC]*e[5mC]*d[5mC]*d[5mC]*d[5mC]*dA*dG*dG*d[5mC]*dT*d[5mC]*dA*eG*eA*eA*eT*eT) [compound 546375]”, the “% inhibition” value is reported as 48%.

Same assay, conditions: HepaRG cells, electroporation, 5,000 nM antisense oligonucleotide, approx. 24 hours, primer probe set RTS3454, relative to untreated control cells; Table 12
“546493 (e[5mC]*eA*eT*eA*e[5mC]*dT*d[5mC]*dG*d[5mC]*d[5mC]*dT*dT*dT*dG*dT*eG*eA*e[5mC]*eT*e[5mC]; antisense) [compound 546493]” was tested, and the “% inhibition” value was 35%.
“546497 (e[5mC]*eA*eT*eG*e[5mC]*dA*dT*dA*d[5mC]*dT*d[5mC]*dG*d[5mC]*d[5mC]*dT*eT*eT*eG*eT*eG; antisense) [compound 546497]” was tested, and the “% inhibition” value was 56%.
In the case of “546422 (eA*e[5mC]*eG*eG*eT*d[5mC]*dT*dT*d[5mC]*dA*dA*dG*d[5mC]*dT*dG*eT*eT*e[5mC]*eT*eA; antisense) [compound 546422]”, the “% inhibition” value is reported as 72%.
For “546695 (eG*eG*eG*eA*e[5mC]*dA*dA*dT*d[5mC]*dT*d[5mC]*d[5mC]*dA*d[5mC]*d[5mC]*e[5mC]*e[5mC]*e[5mC]*eG*eA; antisense) [compound 546695]”, the “% inhibition” value was 36%.
With “546421 (eT*e[5mC]*eA*eA*eG*d[5mC]*dT*dG*dT*dT*d[5mC]*dT*dA*dA*dT*eG*eT*eG*eG*e[5mC]; antisense) [compound 546421]” the “% inhibition” value was 71%.
With “546461 (eA*eT*eG*eT*eT*dT*dA*dT*dT*dG*dT*dA*dG*d[5mC]*d[5mC]*eA*eT*eA*e[5mC]*eA; antisense) [compound 546461]” the “% inhibition” value was 53%.
For “546698 (eT*eG*e[5mC]*eA*eG*dA*dG*dT*dG*dT*d[5mC]*dA*dT*d[5mC]*dT*eG*e[5mC]*eG*eA*eA; antisense) [compound 546698]”, the “% inhibition” value was 59%.

Same assay, conditions: Table 8; HepaRG cells, electroporation with 5,000 nM antisense oligonucleotide, approx. 24 hours; PKK mRNA by RT-PCR (RTS3454), relative to untreated control cells
With “547433 (eG*eT*e[5mC]*e[5mC]*e[5mC]*d[5mC]*dA*dG*dT*dG*dT*dT*dA*d[5mC]*dA*e[5mC]*eA*eA*eT*e[5mC]; antisense) [compound 547433]” the “% inhibition” value was 63%.
With “547431 (e[5mC]*eA*eG*eT*eG*dT*dT*dA*d[5mC]*dA*d[5mC]*dA*dA*dT*d[5mC]*eT*e[5mC]*eA*eA*eA; antisense) [compound 547431]” the “% inhibition” value was 67%.
With “546271 (eA*eG*eA*eA*eA*d[5mC]*dA*d[5mC]*dT*dT*dA*d[5mC]*dA*d[5mC]*dT*eT*e[5mC]*eT*e[5mC]*eT; antisense) [compound 546271]” the “% inhibition” value was 60%.

Same assay, conditions: Table 13; human PKK mRNA in HepaRG cells; 5-10-5 gapmers
In the case of “546817 (eG*e[5mC]*eT*e[5mC]*eT*dG*dA*dG*d[5mC]*d[5mC]*dT*dT*d[5mC]*d[5mC]*dG*e[5mC]*e[5mC]*eT*e[5mC]*eT; antisense) [compound 546817]”, the “% inhibition” value is reported as 77%.
With “547560 (eG*eA*e[5mC]*eG*eG*dT*d[5mC]*dA*d[5mC]*d[5mC]*d[5mC]*dA*dG*d[5mC]*d[5mC]*e[5mC]*eT*eG*eA*e[5mC]; antisense) [compound 547560]” the “% inhibition” value was 42%.
In the case of “546780 (eA*eT*eA*e[5mC]*eT*dG*dG*d[5mC]*dT*dA*dA*dG*dT*d[5mC]*dA*eG*eG*e[5mC]*e[5mC]*e[5mC]; antisense) [compound 546780]”, the “% inhibition” value is reported as 83%.

Same assay, conditions: human PKK mRNA in HepaRG cells; 5-10-5 gapmers; Table 14
“546862 (eA*eA*e[5mC]*eT*eA*dT*dA*dA*d[5mC]*dA*dA*dT*dA*dT*d[5mC]*eA*e[5mC]*eT*eG*eT; antisense) [compound 546862]” was tested, and the “% inhibition” value was 0%.

Same assay, conditions: human PKK mRNA, HepaRG cells, 5,000 nM antisense oligonucleotide, Table 18
“548761 (antisense e[5mC]*eT*eA*eA*d[5mC]*dA*dG*dT*dA*dT*d[5mC]*dA*d[5mC]*eT*eG*eT*eA) [compound 548761]” was tested, and the “% inhibition” value was 49%.
With “548775 (antisense eT*e[5mC]*e[5mC]*eT*dA*dT*dA*dA*d[5mC]*dT*dA*dT*dA*eA*e[5mC]*eA*eG) [compound 548775]” the “% inhibition” value was 0%.

Same assay, conditions: human PKK mRNA, HepaRG cells; 5-10-5 motif oligonucleotides targeting SEQ ID NO: 1 and 10
“547673 (eG*eA*eA*eT*eA*dT*d[5mC]*dA*d[5mC]*dT*dG*dT*d[5mC]*d[5mC]*dT*eA*eT*eA*eA*e[5mC]; antisense) [compound 547673]” was tested, and the “% inhibition” value was 21%.
With “546885 (eT*eA*eT*eG*eT*d[5mC]*dA*d[5mC]*dT*dG*dT*dA*d[5mC]*d[5mC]*dT*eA*eT*eA*eA*e[5mC]; antisense) [compound 546885]” the “% inhibition” value was 46%.
For “547641 (e[5mC]*eT*eG*eT*e[5mC]*d[5mC]*dT*dA*dT*dA*dA*d[5mC]*dT*dA*dT*eA*eA*e[5mC]*eA*eG; antisense) [compound 547641]”, the “% inhibition” value was 43%.
